In PubChem BioAssay (NCI) one finds GI50 and TGI data, which are given here for eight compounds.

The structures appear in SMILES notation.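 Following 48 hours of exposure in 96-well plates, responses at five concentrations were used to interpolate endpoints linearly. GI50: concentration for 50% inhibition of growth. TGI denotes the concentration required for complete inhibition of growth.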

What all share (assay): inhibition of tumour cell growth, NCI panel, 48 h
In assay [1] the test system is 786-0 renal.
In assay [2] the test system is A549 NSCLC.
In assay [3] the test system is HOP-92 NSCLC.
Assay [4] concerns K-562 leukemia.
Assay [5] has as its system M14 melanoma.
In assay [6] the test system is MDA-MB-435.
Assay [7] deals with NCI-H460 lung.
Assay [8] relates to OVCAR-4 ovarian.
For assay [9], the system named is SR leukemia.
The subject of assay [10] is UACC-257 melanoma.

With `COc1cccc(/C=C/C(=O)c2ccc(Cl)cc2Cl)c1`, the GI50 in assay [1] is 12.8 µM; in [2], 10.5 µM; in assay [3], 0.0134 µM; in assay [4], 3.22 µM; in assay [5], 10.3 µM; in assay [6] it was 11.1 µM. In addition, the GI50 is 11.9 µM in assay [7], 10.9 µM in assay [8], 0.833 µM in assay [9] and 9.33 µM in [10]. For the same compound, the TGI in assay [1] turned out to be 40.7 µM; in assay [2], 22.7 µM; in assay [3], 9.44 µM; in [4], 26.9 µM; in [5], 22.3 µM; in [6] it was 28.6 µM. Also, the TGI in [7] is 40.2 µM; in assay [8] it was 41 µM; in assay [9], above 50 µM; in assay [10] it was 17.4 µM.

`Cc1cccc(C)c1NC(=O)Nc1ccc(S(N)(=O)=O)cc1`: the TGI in assay [1], in assay [2], in assay [3], in [4], in assay [5] and in assay [6] was above 100 µM throughout. Besides, the TGI in [7], in assay [8], in assay [9] and in [10] was above 100 µM throughout.

On to `CCN(CC)CCCC(C)N=C(C1=C(C(=NC(C)CCCN(CC)CC)c2cccc(OC)c2)C(=O)NC1=O)c1cccc(OC)c1` (stereo not given), for which the GI50 in [1] is 1.8 µM; in assay [2], 0.966 µM; in assay [3] it was 0.993 µM; in assay [4] it was 1.34 µM; in assay [5], 0.89 µM; in assay [6], 0.871 µM. Moreover, the GI50 in assay [7] was 0.841 µM; in assay [8], 1.18 µM; in assay [9], 1.36 µM; in assay [10], 0.952 µM. Further, the TGI came to 7.86 µM in [1]; 2.08 µM in assay [2]; 3.63 µM in assay [3]; 4.2 µM in [4]; 1.68 µM in assay [5]; 1.68 µM in assay [6]. The TGI in assay [7] worked out at 2.13 µM; in assay [8], 3.49 µM; in [9], 4.31 µM; in [10] it was 1.75 µM.

Consider `CC[N+]1(C)CCC(O)(c2ccc(OC)cc2)C(C(=O)c2ccc(OC)cc2)C1` (stereo not given), for which the TGI in assay [1] was 9.05 µM; in [2], 41.3 µM; in [3] it was 6.79 µM; in assay [4] it was above 22.4 µM; in assay [5], 21.3 µM; in assay [6] it was 31.1 µM. Also, the TGI was 45 µM in [7], 51.2 µM in assay [8], 5.61 µM in assay [9] and 35.4 µM in assay [10].

On to `CN/N=C(\C)C(CN(C)C)C(c1ccccc1)c1c(O)c2ccccc2oc1=O` (stereo not given), for which the TGI in [1] was above 100 µM; in [2] it was above 100 µM; in assay [3] it was 6.78 µM; in assay [4] it was above 100 µM; in assay [5], above 100 µM; in [6] it was above 100 µM. Further, the TGI in [7], in [8], in [9] and in [10] was above 100 µM throughout.

Turning to `COC(=O)c1cc(O)c2c(c1C(=O)OC)C[C@H]1[C@@H]3CC=C4C[C@@H](O)CC[C@]4(C)[C@H]3CC[C@]21C`, the GI50 in assay [1] was 2.42 µM; in assay [2] it was 3.06 µM; in assay [3], 2.59 µM; in assay [4], 2.41 µM; in [5], 3.47 µM; in assay [6], 3.01 µM. In addition, the GI50 is 3.24 µM in [7], 3.59 µM in [8], 3.41 µM in [9] and 2.54 µM in assay [10]. Moreover, the TGI stood at 6.7 µM in [1]; 11.7 µM in [2]; 8.2 µM in assay [3]; 7.77 µM in assay [4]; 18.7 µM in assay [5]; 20.6 µM in assay [6]. The TGI in assay [7] is 12.7 µM; in assay [8], 15.8 µM; in assay [9], above 100 µM; in assay [10] it was 7.5 µM.

With `COc1ccc(C(=O)c2cc3c(N)c(C(=O)Nc4ccc(C)cc4)sc3nc2C)cc1`, the GI50 was 4.48 µM in assay [1]; 3.96 µM in assay [2]; 2.15 µM in [3]; 1.28 µM in assay [4]; 1.99 µM in assay [5]; 0.275 µM in assay [6]. Besides, the GI50 in [7] is 2.99 µM; in assay [8], 5.55 µM; in [9], 0.525 µM; in assay [10], 20.4 µM. Moreover, the TGI in assay [1] is 19.1 µM; in assay [2], above 100 µM; in [3], 21.9 µM; in assay [4], above 100 µM; in assay [5] it was 62.9 µM; in assay [6], 1.35 µM. Further, the TGI is 14.2 µM in assay [7], above 100 µM in assay [8], above 100 µM in assay [9] and above 100 µM in [10].

Take `CN1C(=O)N[C@H]2[C@@H]3NC(=O)c4ccc(Br)n4[C@@H]3C[C@]21O`: the GI50 is 0.223 µM in [1]; 0.27 µM in [2]; 0.0955 µM in [3]; 0.0827 µM in assay [4]; 0.0454 µM in assay [5]; 0.156 µM in assay [6]. Further, the GI50 is 0.0403 µM in assay [7], 0.093 µM in assay [8], 0.0335 µM in assay [9] and 0.108 µM in [10]. In addition, the TGI in [1] was found to be 1.82 µM; in [2], 4.47 µM; in assay [3], 1.28 µM; in [4] it was 1.43 µM; in assay [5] it was 0.236 µM; in [6] it was 1.72 µM. Further, the TGI is 1.5 µM in assay [7], 1.56 µM in [8], 0.639 µM in [9] and 1.52 µM in assay [10].
